# In article PMC9249791, “Molecular dissection of the glutamine synthetase-GlnR nitrogen regulatory circuitry in Gram-positive bacteria” (Nature Communications, 2022):
# Key:
# Type in all cases: binding
# Sa GS = target: T1, Sa GS (Staphylococcus aureus, UniProt P0A040); assay: isothermal titration calorimetry
# T1 construct: gene glnA; full-length, synthetic gene in pET15b, N-terminal His-tag, E. coli C41(DE3); tag removed only for crystallography; dodecamer (double hexamer ring)
# T1 sequence (P0A040 1-446): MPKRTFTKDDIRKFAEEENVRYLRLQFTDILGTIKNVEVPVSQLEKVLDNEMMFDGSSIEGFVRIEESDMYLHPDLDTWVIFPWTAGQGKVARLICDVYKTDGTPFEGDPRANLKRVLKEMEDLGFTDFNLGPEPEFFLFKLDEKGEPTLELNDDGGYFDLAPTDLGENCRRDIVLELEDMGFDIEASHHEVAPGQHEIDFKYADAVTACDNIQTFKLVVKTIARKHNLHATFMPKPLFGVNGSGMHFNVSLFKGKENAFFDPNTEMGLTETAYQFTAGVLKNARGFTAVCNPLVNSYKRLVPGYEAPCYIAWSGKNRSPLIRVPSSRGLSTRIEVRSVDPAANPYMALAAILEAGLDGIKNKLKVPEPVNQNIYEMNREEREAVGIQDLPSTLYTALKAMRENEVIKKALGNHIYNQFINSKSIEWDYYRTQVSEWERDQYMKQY
# Bs GS = target: T2, Bs GS (Bacillus subtilis, UniProt P12425); assay: cryo-EM structure […] Å; conditions: 20 mM glutamine, 5 mM MgCl2, pH 7.5, with GlnR C-tail peptide; overlaps glutamate site
# T2 construct: gene glnA; full-length, synthetic gene in pET15b, N-terminal His-tag, E. coli C41(DE3); apo dodecamer
# T2 sequence (P12425 1-444): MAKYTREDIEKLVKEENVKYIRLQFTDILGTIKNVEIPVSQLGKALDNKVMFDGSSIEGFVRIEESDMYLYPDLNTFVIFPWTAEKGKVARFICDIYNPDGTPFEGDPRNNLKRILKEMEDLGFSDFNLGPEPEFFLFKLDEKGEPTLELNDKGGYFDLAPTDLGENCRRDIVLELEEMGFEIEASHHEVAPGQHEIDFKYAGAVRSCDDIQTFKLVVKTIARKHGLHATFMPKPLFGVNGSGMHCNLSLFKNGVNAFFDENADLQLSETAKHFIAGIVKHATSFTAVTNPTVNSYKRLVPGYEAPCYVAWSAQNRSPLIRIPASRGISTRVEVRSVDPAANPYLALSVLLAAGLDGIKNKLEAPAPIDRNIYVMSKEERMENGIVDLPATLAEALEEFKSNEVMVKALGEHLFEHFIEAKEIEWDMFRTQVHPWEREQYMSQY
# Pp GS = target: T3, Pp GS (Paenibacillus polymyxa, UniProt A0A0F0G8G2); assay: cryo-EM structure […]-2.[…] Å; conditions: 20 mM glutamine, 5 mM MgCl2, pH 7.5, with GlnR C-tail peptide; overlaps glutamate site
# T3 construct: gene glnA2; full-length, synthetic gene in pET15b, N-terminal His-tag (removed by thrombin for crystallography), E. coli C41(DE3)
# T3 sequence (A0A0F0G8G2 1-442): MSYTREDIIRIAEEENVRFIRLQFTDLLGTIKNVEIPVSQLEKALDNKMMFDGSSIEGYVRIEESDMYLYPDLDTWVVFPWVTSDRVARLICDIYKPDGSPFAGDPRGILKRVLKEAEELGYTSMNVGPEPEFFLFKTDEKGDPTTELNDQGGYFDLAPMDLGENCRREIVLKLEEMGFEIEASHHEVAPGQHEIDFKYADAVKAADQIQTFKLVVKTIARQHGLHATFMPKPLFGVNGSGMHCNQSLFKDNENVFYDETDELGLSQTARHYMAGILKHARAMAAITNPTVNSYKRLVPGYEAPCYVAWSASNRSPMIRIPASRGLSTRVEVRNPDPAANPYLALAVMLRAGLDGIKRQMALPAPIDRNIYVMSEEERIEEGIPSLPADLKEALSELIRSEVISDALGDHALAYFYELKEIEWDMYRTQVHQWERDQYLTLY
# Lm GS = target: T4, Lm GS (Listeria monocytogenes, UniProt A0A5D5GA79); assay: cryo-EM structure […] Å; conditions: 20 mM glutamine, 5 mM MgCl2, pH 7.5, with GlnR C-tail peptide; overlaps glutamate site
# T4 construct: gene glnA; full-length, synthetic gene in pET15b, N-terminal His-tag, E. coli C41(DE3); apo dodecamer
# T4 sequence (A0A5D5GA79 1-444): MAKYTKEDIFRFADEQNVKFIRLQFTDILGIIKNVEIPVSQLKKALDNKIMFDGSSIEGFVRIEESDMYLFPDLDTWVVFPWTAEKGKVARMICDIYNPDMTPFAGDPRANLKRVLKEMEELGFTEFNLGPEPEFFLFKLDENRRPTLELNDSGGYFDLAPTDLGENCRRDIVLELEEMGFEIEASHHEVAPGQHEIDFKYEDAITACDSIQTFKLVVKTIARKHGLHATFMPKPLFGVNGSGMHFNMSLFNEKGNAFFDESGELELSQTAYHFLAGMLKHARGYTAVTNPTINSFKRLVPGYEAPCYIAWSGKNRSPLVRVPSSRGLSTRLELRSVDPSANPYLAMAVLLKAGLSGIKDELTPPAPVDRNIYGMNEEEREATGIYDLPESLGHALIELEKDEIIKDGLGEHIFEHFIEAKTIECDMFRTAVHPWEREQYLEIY
structure (smiles),measurement,setting,value
NC(=O)CC[C@H](N)C(=O)O [glutamine],Kd,Sa GS,500 µM
same,cryo-EM structure 1.96 Å,Bs GS,Glutamine binds identically in each structure to form FBI-GS
same,cryo-EM structure 2.07-2.28 Å,Pp GS,Glutamine binds identically in each structure to form FBI-GS
same,cryo-EM structure 2.61 Å,Lm GS,Glutamine binds identically in each structure to form FBI-GS
